Data: publication PMC7503713, “GANT61 Reduces Hedgehog Molecule (GLI1) Expression and Promotes Apoptosis in Metastatic Oral Squamous Cell Carcinoma Cells” (International Journal of Molecular Sciences, 2020)

Assays:
NOF = test: alamarBlue cytotoxicity assay, normal oral fibroblasts NOF; format: cell-based; conditions: Homo sapiens, Fibroblast, 72 h of incubation
Description: For comparative analysis, primary cultures of normal oral fibroblasts (NOF) were isolated from fragments of healthy patient gingiva, using the same technique previously described for CAFs above, and then maintained in culture for up to 15 passages.
(§1) To assess the cytotoxicity of the GLI inhibitor GANT61 (Sigma-Aldrich, St. Louis, MO, USA) in tumor and non-tumor cell lines, an alamarBlue assay (Sigma-Aldrich Chemical Co, St. Louis, MO, USA) was performed after 72 h of exposure to the inhibitor, as described by Ahmed et al., 1994 [46]. Cells were distributed on 96-well plates at a density of 7 × 10^4 cells/mL for adhered cells, and 3 × 10^5 cells/mL for cells in suspension. All tested compounds were dissolved in DMSO, added to wells containing 100 µL of cells in complete medium, and then incubated for 72 h. […] Absorbance was measured at 570 nm (reduced) and 595 nm (oxidized) wavelengths, using a Spectramax 190 plate reader (Molecular Devices; Sunnyvale, CA, USA).
(§2) Statistical analyses were performed, using GraphPad Prism v. […] Data were analyzed according to distribution along the normal Gaussian curve. […] Differences between groups resulting from in vitro assays were evaluated by ANOVA (analysis of variance) testing, followed by the Student–Newman–Keuls test. […]

HSC3 cells = test: Cell cycle and internucleosomal DNA fragmentation by flow cytometry (PI); format: cell-based, human; conditions: for cells in S and G2/M phases: ≥48 h
Description: To study the effects of GANT61 on HSC3 cell viability, cycle, and death patterns, 4 mL of cellular solution (containing 0.7 × 10^5 cells/mL) was placed on 6-well plates and incubated overnight, to allow adhesion. […] For cell cycle analysis, the effects of GANT61 on HSC3 cells were also evaluated after 12 h of treatment. Negative controls were treated with the vehicle (0.2% DMSO) used to dilute the GLI inhibitor, and 5-fluorouracil (5-FU, 17 μM) was used as a positive control. All experiments were carried out in duplicate and repeated no less than three times. Cell viability was determined by the trypan blue exclusion method, in which 90 μL aliquots were collected at several incubation periods, stained with 10 μL trypan blue, and counted in a Neubauer chamber, under optical microscopy, at 20× magnification (Olympus CX41 Olympus, Tokyo, Japan).
Cellular nuclear DNA content was evaluated by flow cytometry, to differentiate among cell cycle phases, using PI (propidium iodide) as a fluorogenic agent. Following incubation with the GLI inhibitor, the supernatant was collected, and wells were washed with saline. Next, cells were trypsinized, then centrifuged (295× g for 5 min) together with the supernatant. Permeabilization was carried out by using a solution (300 µL) containing 0.1% triton X-100, 0.1% sodium citrate and 2 μg/mL of PI and 100 µg/mL RNase in distilled water, placed under dark conditions, at room temperature, for 30 min. Cells were then acquired (10,000 events/sample) and analyzed on a BD LSRFortessa flow cytometer, using BD FACSDiva software version 6.2 (Becton Dickinson Biosciences, San José, CA, USA). Proportions of fragmented internucleosomal DNA and cell cycle phases were determined by using Flowjo software v. 10 (Flowjo LCC, Ashland, OR, USA). Cells in sub-G1 phase were considered to present internucleosomal DNA fragmentation. Cellular debris was omitted from our analysis.

SCC15 = test: alamarBlue cytotoxicity assay, SCC15; format: cell-based, human; conditions: 72 h of incubation
Description: as §1, with “h. Eight concentrations of GANT61 (0.19 to 50 µg/mL), Doxorubicin (Laboratory IMA S.A.I.C., Buenos Aires, Argentina), and 5-Fluorouracil (5-FU, Sigma-Aldrich, St. Louis, MO, USA), both used as positive controls at concentrations ranging from 0.03 to 5 µg/mL, were added to respective wells.” for “h.”
as §2

APC03 = test: alamarBlue cytotoxicity assay, APC03; format: cell-based, human; conditions: 72 h of incubation
Description: as §1, with “h. Eight concentrations of GANT61 (0.19 to 50 µg/mL), Doxorubicin (Laboratory IMA S.A.I.C., Buenos Aires, Argentina), and 5-Fluorouracil (5-FU, Sigma-Aldrich, St. Louis, MO, USA), both used as positive controls at concentrations ranging from 0.03 to 5 µg/mL, were added to respective wells.” for “h.”
as §2

GLI2 mRNA = test: qPCR of HH pathway gene expression in HSC3 cells, GLI2; format: cell-based, human; conditions: HSC3, 18 and 36 µM, 12 h, not significant
Description: For total RNA isolation, HSC3 cells were plated on 6-well plates, at a density of 0.7 × 10^5 cells/mL (5 mL/well volume), and incubated overnight, followed by treatment with the GLI inhibitor for 12 h at both concentrations (18 and 36 µM).
All experiments were carried out under DNAse/RNAse-free conditions. Silica microcolumns were used for RNA extraction, using an RNeasy Plus Mini Kit (QIAGEN, Hilden, Germany). Extracted RNA was analyzed for quantity and purity, using a NanoDrop®® 1000 spectrophotometer (Thermo Fisher Scientific, Waltham, MA, USA).
Reverse transcription was performed by using Superscript VILO™ transcriptase enzyme (Invitrogen, Carlsbad, CA, USA). The cDNA samples were stored at −20 °C, until the time of use.
HH pathway component expression was evaluated in cells treated or not with GANT61 by qPCR, using TaqMan Gene Expression Assays^TM inventoried for the PTCH1 (Hs00181117_m1), GLI1 (Hs01110766_m1), GLI2 (Hs01119974_m1), and GLI3 (Hs00609233_m1) genes, as well as for B2 M (Hs99999907_m1). […]
Following amplification and dissociation runs, quantification cycle (Cq) values were obtained by using the ViiA7^TM System Operational Program (AppliedByosistems, Foster City, CA, USA). For relative quantification, the comparative method (2−∆∆Cq) described by Livak and Schmittgen, 2001 was used. […]

| Structure (SMILES) | IC50 (NOF) [µM] | cells in S and G2/M phases (HSC3 cells; 5-FU positive control) | IC50 (SCC15) [µM] | IC50 (APC03) [µM] | mRNA expression of GLI2 (GLI2 mRNA) | cells in the sub-G0/G1 phase (HSC3 cells; 36 µM, 24 and 48 h, vs DMSO 0.2%) | percentage of HSC3 cells in the sub-G0/G1 phase (HSC3 cells; 36 µM, 12 h) | number of cells in the G0-G1 phase (HSC3 cells; 36 µM, from 12 h forward) | cells in S and G2/M phases (HSC3 cells; 18 and 36 µM) |
| --- | --- | --- | --- | --- | --- | --- | --- | --- | --- |
| O=c1[nH]cc(F)c(=O)[nH]1 [5-FU, 5-fluorouracil] | 39.6 | significantly lower numbers of cells | – | – | – | – | – | – | – |
| CN(C)c1ccccc1CN1CCCN(Cc2ccccc2N(C)C)C1c1ccncc1 [GANT61] | – | – | 72.7 | > 116 | Reductions in mRNA expression | significantly higher numbers of cells | significant increase | significant decrease | significantly lower numbers of cells |
